Among the test systems are A498; CAKI-1; HL-60; HOP-92; Hs-578T; K562; MDA-MB-231; MDA-MB-435; MDA-N; NCI-H226; NCI-H23; OVCAR-3; PC-3; SK-MEL-28; SK-MEL-2; SNB-19; T47D; UACC-257; DMS-114; XF498.
Common to all, as to test: NCI-60 cell line screen, 48 h

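Method: 48-hour compound exposure of cells in 96-well plates, five concentrations, linear interpolation of endpoints. At the GI50, growth is halved.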 Activity calls are given as the source filed them. No stated cut-off is given here; in the data, active = GI50 up to about 1.1 µM and inactive = higher. A value given as a limit tells only on which side of the number the result lay.

This is an account of results in ChEMBL document CHEMBL1201862, “PubChem BioAssay data set” (2004).

`COc1ccc(N2NC(c3ccccc3)(c3ccccc3)C(C)C2=O)cc1` (stereo not drawn): the GI50 was > 100 µM (inactive) with A498; 54.2 µM (inactive) with CAKI-1; 35.3 µM (inactive) in the experiment with HL-60; 48.5 µM (inactive) in the experiment with HOP-92; 67.5 µM (inactive) in the experiment with Hs-578T; 52.1 µM (inactive) in the experiment on K562. The GI50 in the experiment on MDA-MB-231 was 52.1 µM (inactive); with MDA-MB-435 it was 57.3 µM (inactive); in the experiment on MDA-N, 39.1 µM (inactive); with NCI-H226, 49.8 µM (inactive); with NCI-H23, 65.6 µM (inactive); in the experiment on OVCAR-3, > 100 µM (inactive). For the same compound, the GI50 in the experiment with PC-3 was 30.3 µM (inactive); in the experiment on SK-MEL-28, > 100 µM (inactive); with SK-MEL-2, 51.8 µM (inactive); with SNB-19, > 100 µM (inactive); in the experiment on T47D, 39 µM (inactive); in the experiment on UACC-257, 51.3 µM (inactive).
On to `CN1C(=O)c2ccccc2NC(=O)c2cnn(C)c21`, for which the GI50 with A498, with CAKI-1, in the experiment on DMS-114, in the experiment on HL-60, in the experiment on HOP-92 and in the experiment on K562 was > 100 µM (inactive) throughout. Moreover, the GI50 with NCI-H226, with NCI-H23, in the experiment with OVCAR-3, with SK-MEL-28, in the experiment with SK-MEL-2 and in the experiment with SNB-19 was > 100 µM (inactive) each time. The GI50 in the experiment on UACC-257 and in the experiment on XF498 was > 100 µM (inactive) in each case.
With `C/C(CCOC1CCCCO1)=C(\C)[Si](C)(C)C` (stereo not drawn), the GI50 was > 100 µM (inactive) in the experiment with A498; > 100 µM (inactive) in the experiment with DMS-114; 93.3 µM (inactive) in the experiment on HL-60; > 100 µM (inactive) with HOP-92; > 100 µM (inactive) with K562; > 100 µM (inactive) in the experiment with NCI-H23. The GI50 with OVCAR-3, in the experiment with SK-MEL-28, with SK-MEL-2, with SNB-19, with UACC-257 and in the experiment with XF498 was > 100 µM (inactive) throughout.
Take `O=C(Nc1nnc(S)[nH]1)C(=O)C(c1cnc2ccc([N+](=O)[O-])cc2n1)[N+](=O)[O-]` (stereo not drawn): the GI50 was > 100 µM (inactive) with A498; > 100 µM (inactive) in the experiment with CAKI-1; 47 µM (inactive) in the experiment on DMS-114; > 100 µM (inactive) with HL-60; > 100 µM (inactive) in the experiment on HOP-92; > 100 µM (inactive) with K562. Further, the GI50 in the experiment with NCI-H226, in the experiment on NCI-H23, in the experiment on OVCAR-3, in the experiment with SK-MEL-28, in the experiment on SNB-19 and with UACC-257 was > 100 µM (inactive) in each case. Besides, the GI50 in the experiment with XF498 was > 100 µM (inactive).
Regarding `C=CCCCC12CCCc3cccc(c31)NC2=O` (stereo not drawn), the GI50 in the experiment with A498 is 19.6 µM (inactive); in the experiment with DMS-114, 17.3 µM (inactive); with HL-60 it was 15.5 µM (inactive); with HOP-92, 13.8 µM (inactive); in the experiment with K562, 22 µM (inactive); in the experiment on NCI-H226, 20.6 µM (inactive). In addition, the GI50 in the experiment with NCI-H23 was 18.1 µM (inactive); with OVCAR-3 it was 18 µM (inactive); in the experiment with SK-MEL-2 it was 23.2 µM (inactive); in the experiment on SNB-19, 23.4 µM (inactive); in the experiment with UACC-257 it was 22.1 µM (inactive); in the experiment on XF498 it was 20.6 µM (inactive).
With `COc1ccc(-n2cnnc2-c2nsc3ccccc23)cc1`, the GI50 with DMS-114 was > 100 µM (inactive); in the experiment on HL-60, 78 µM (inactive); with HOP-92, 45.1 µM (inactive); in the experiment on K562 it was 90.6 µM (inactive); with NCI-H23, 95.3 µM (inactive); with OVCAR-3 it was 51.4 µM (inactive). The GI50 in the experiment with SK-MEL-28 is 78.2 µM (inactive); in the experiment on SK-MEL-2 it was > 100 µM (inactive); in the experiment with SNB-19, > 100 µM (inactive); in the experiment on UACC-257 it was > 100 µM (inactive).
Turning to `CCOC(=O)N1CCC(=O)C(CNC23CC4CC(CC(C4)C2)C3)C1` (stereo not drawn), the GI50 in the experiment on A498 is > 100 µM (inactive); in the experiment with CAKI-1 it was > 10 µM (inactive); in the experiment on HL-60, 22.2 µM (inactive); in the experiment with HOP-92 it was 20.7 µM (inactive); in the experiment on K562, 13.1 µM (inactive); in the experiment on NCI-H226 it was > 100 µM (inactive). Further, the GI50 in the experiment with NCI-H23 is 61.4 µM (inactive); in the experiment with SK-MEL-28 it was 18.2 µM (inactive); with SK-MEL-2, > 100 µM (inactive); in the experiment on SNB-19, > 100 µM (inactive); in the experiment with UACC-257, 23.9 µM (inactive); in the experiment on XF498 it was 18.1 µM (inactive).
Consider `CCCCCCCCCCNC(=O)CCC(NC(=O)c1ccc(N(C)Cc2cnc3nc(N)nc(N)c3n2)cc1)C(=O)NCCCCCCCCCC` (stereo not drawn), for which the GI50 in the experiment on A498 is 30.5 µM (inactive); with CAKI-1 it was > 100 µM (inactive); in the experiment on HL-60 it was 3.4 µM (inactive); with HOP-92, 9.1 µM (inactive); in the experiment with Hs-578T, 3.09 µM (inactive); with K562 it was 0.698 µM (active). Besides, the GI50 is 3.57 µM (inactive) in the experiment on MDA-MB-231; 4.2 µM (inactive) with MDA-MB-435; 4.47 µM (inactive) with MDA-N; 18.8 µM (inactive) in the experiment on NCI-H226; 14.7 µM (inactive) in the experiment on NCI-H23; 10 µM (inactive) in the experiment with OVCAR-3. Also, the GI50 is 5.62 µM (inactive) in the experiment with PC-3; 8.79 µM (inactive) in the experiment with SK-MEL-28; 13.6 µM (inactive) in the experiment on SK-MEL-2; 9.46 µM (inactive) in the experiment with SNB-19; 11.6 µM (inactive) in the experiment on T47D; 7.89 µM (inactive) with UACC-257.
For the compound `O=C(O)CSc1nnc(-c2ccc(O)cc2)[nH]1`, the GI50 in the experiment with A498, with CAKI-1, in the experiment with DMS-114, in the experiment with HL-60, with HOP-92 and with K562 was > 100 µM (inactive) throughout. Also, the GI50 in the experiment on NCI-H226, with NCI-H23, with OVCAR-3, in the experiment on SK-MEL-28, in the experiment with SK-MEL-2 and in the experiment on SNB-19 was > 100 µM (inactive) in each case. The GI50 with UACC-257 and in the experiment on XF498 was > 100 µM (inactive) in each case.
`CCOc1ccc(/N=N/S(=O)(=O)O)cc1`: the GI50 in the experiment with A498, in the experiment with CAKI-1, in the experiment on HL-60, with HOP-92, in the experiment with Hs-578T and with K562 was > 100 µM (inactive) in each case. Besides, the GI50 with MDA-MB-231, in the experiment with MDA-MB-435, in the experiment with MDA-N, with NCI-H226, in the experiment with NCI-H23 and in the experiment on OVCAR-3 was > 100 µM (inactive) each time. Further, the GI50 in the experiment with PC-3, in the experiment on SK-MEL-28, in the experiment with SK-MEL-2, in the experiment with SNB-19, in the experiment with T47D and in the experiment with UACC-257 was > 100 µM (inactive) in each case.
As for `CC(=O)OC(/C=C1/C=CC(=O)O1)COC(=O)c1ccccc1` (stereo not drawn) [ACETYLMELODORINOL], the GI50 with A498 was > 31.2 µM (inactive); with CAKI-1, > 31.2 µM (inactive); in the experiment on DMS-114, > 31.2 µM (inactive); in the experiment on HL-60 it was > 31.2 µM (inactive); in the experiment with HOP-92, > 31.2 µM (inactive); in the experiment with K562 it was 10.5 µM (inactive). Also, the GI50 with NCI-H226, in the experiment with NCI-H23, with OVCAR-3, in the experiment with SK-MEL-28, in the experiment with SNB-19 and with UACC-257 was > 31.2 µM (inactive) each time. Moreover, in the experiment with XF498, the GI50 was > 31.2 µM (inactive).
For the compound `COC1=CC(=O)c2c(c(O)c3oc4cc(OC)cc(C)c4c(=O)c3c2O)C1=O` [BIKAVERIN], the GI50 in the experiment with A498 is 1.37 µM (inactive); with CAKI-1, 0.195 µM (active); in the experiment with DMS-114 it was 0.462 µM (active); with HL-60 it was 0.386 µM (active); in the experiment with HOP-92 it was 0.578 µM (active); in the experiment with K562 it was 0.719 µM (active). The GI50 in the experiment with NCI-H226 was 0.159 µM (active); in the experiment with NCI-H23 it was 1.07 µM (active); in the experiment on OVCAR-3, 0.809 µM (active); with SK-MEL-28, 2.03 µM (inactive); in the experiment on SK-MEL-2, 0.865 µM (active); in the experiment on SNB-19, 2.28 µM (inactive). Further, the values for the GI50 with UACC-257 and in the experiment with XF498 were 1.2 µM (inactive) and 0.942 µM (active), respectively.
